# Data taken from ChEMBL document CHEMBL3351837 (Bioorg Med Chem Lett, 2014).
# Key:
# [1] = Half life in human plasma after 60 mins by […] analysis; type: ADME, cell-free
# [2] = target: 3',5'-cyclic-AMP phosphodiesterase 4B (Homo sapiens, UniProt Q07343); test: Inhibition of human recombinant PDE4B1 activity assessed as residual cAMP concentration by HTRF assay
# [3] = Half life in human lung homogenate after 60 mins by […] analysis; type: ADME, tissue-based
# [4] = Half life in human lung S9 fraction after 60 mins by […] analysis; type: ADME, tissue-based
# [5] = target: 3',5'-cyclic-AMP phosphodiesterase 4D (Homo sapiens, UniProt Q08499)
# Description: Inhibition of human recombinant PDE4D2 activity assessed as residual cAMP concentration by HTRF assay
# [6] = Apparent permeability of the compound at pH 7.4 buffer by PAMPA; type: physicochemical
# Sequence of 3',5'-cyclic-AMP phosphodiesterase 4B (Q07343 whole entry): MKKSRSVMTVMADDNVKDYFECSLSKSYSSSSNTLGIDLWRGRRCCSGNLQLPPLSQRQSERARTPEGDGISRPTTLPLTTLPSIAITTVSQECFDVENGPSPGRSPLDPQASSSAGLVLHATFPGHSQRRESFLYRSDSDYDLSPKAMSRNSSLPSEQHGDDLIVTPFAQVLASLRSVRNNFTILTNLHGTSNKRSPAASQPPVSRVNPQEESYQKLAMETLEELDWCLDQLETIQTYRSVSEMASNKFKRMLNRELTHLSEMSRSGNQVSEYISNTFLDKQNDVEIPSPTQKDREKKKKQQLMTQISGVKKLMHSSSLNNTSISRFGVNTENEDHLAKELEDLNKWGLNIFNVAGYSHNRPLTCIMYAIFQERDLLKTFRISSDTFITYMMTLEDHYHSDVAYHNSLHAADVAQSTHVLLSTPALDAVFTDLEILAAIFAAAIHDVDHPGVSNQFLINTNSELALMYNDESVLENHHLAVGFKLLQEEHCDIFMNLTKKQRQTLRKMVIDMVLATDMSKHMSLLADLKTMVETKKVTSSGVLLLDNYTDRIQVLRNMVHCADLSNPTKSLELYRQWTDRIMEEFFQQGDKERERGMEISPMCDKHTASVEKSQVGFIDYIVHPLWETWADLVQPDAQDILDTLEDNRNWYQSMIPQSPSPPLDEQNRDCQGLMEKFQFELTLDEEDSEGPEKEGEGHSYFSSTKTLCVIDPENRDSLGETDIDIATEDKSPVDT
# Sequence of 3',5'-cyclic-AMP phosphodiesterase 4D (Q08499 whole entry): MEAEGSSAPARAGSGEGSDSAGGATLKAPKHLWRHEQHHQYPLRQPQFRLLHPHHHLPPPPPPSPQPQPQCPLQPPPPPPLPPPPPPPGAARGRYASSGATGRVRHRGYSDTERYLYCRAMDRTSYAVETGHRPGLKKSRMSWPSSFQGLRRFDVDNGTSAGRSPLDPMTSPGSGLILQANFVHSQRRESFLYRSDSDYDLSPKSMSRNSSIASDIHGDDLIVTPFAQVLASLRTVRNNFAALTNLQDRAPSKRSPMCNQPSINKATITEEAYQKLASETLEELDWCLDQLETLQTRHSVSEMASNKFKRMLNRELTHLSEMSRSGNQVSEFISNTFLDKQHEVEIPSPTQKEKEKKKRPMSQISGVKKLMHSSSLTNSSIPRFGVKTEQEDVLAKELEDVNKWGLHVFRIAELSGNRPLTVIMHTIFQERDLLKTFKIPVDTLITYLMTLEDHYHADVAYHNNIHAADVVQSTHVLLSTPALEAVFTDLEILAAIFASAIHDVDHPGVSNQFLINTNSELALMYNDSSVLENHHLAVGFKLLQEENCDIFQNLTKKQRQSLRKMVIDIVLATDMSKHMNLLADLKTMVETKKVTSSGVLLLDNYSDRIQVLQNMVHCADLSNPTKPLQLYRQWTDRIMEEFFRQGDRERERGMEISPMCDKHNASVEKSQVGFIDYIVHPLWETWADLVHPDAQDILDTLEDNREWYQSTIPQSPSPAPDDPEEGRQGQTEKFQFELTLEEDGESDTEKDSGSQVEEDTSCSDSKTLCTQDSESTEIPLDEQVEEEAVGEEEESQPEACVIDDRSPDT
half-life [1],IC50 [2],half-life [3],half-life [4],IC50 [5],Papp [6],Compound
< 5 min,5.4 nM,> 60 min,> 60 min,18 nM,,O=C(Nc1c(Cl)cncc1Cl)c1ccc(OC(F)F)c(OCCCNC2CCOC2=O)c1 (configuration not stated)
,12 nM,,,7.3 nM,,O=C(Nc1c(Cl)cncc1Cl)c1ccc(OC(F)F)c(OCCCN[C@@H]2CCOC2=O)c1
,11 nM,,,48 nM,,O=C(Nc1c(Cl)cncc1Cl)c1ccc(OC(F)F)c(OCCCN[C@H]2CCOC2=O)c1
,740 nM,,,2300 nM,0.02 ×10⁻⁶ cm/s,O=C(Nc1c(Cl)cncc1Cl)c1ccc(OC(F)F)c(OCCCNC(CCO)C(=O)O)c1 (configuration not stated)
,1700 nM,,,7200 nM,,O=C(Nc1c(Cl)cncc1Cl)c1ccc(OC(F)F)c(OCCCN[C@H](CCO)C(=O)O)c1
,2700 nM,,,> 10000 nM,,O=C(Nc1c(Cl)cncc1Cl)c1ccc(OC(F)F)c(OCCCN[C@@H](CCO)C(=O)O)c1
< 5 min,1.8 nM,39 min,> 60 min,5.5 nM,,O=C(Nc1c(Cl)cncc1Cl)c1ccc(OC(F)F)c(OCCCSC2CCOC2=O)c1 (configuration not stated)
,5.5 nM,,,9.9 nM,0.14 ×10⁻⁶ cm/s,O=C(Nc1c(Cl)cncc1Cl)c1ccc(OC(F)F)c(OCCCSC(CCO)C(=O)O)c1 (configuration not stated)
< 5 min,4 nM,> 60 min,> 60 min,6.6 nM,4.7 ×10⁻⁶ cm/s,O=C(Nc1c(Cl)cncc1Cl)c1ccc(OC(F)F)c(OCCCCNC2CCOC2=O)c1 (configuration not stated)
,180 nM,,,150 nM,0.03 ×10⁻⁶ cm/s,O=C(Nc1c(Cl)cncc1Cl)c1ccc(OC(F)F)c(OCCCCNC(CCO)C(=O)O)c1 (configuration not stated)
< 5 min,4.7 nM,,> 60 min,1.8 nM,,O=C(Nc1c(Cl)cncc1Cl)c1ccc(OC(F)F)c(OCCCCSC2CCOC2=O)c1 (configuration not stated)
,8.8 nM,,,4.5 nM,0.05 ×10⁻⁶ cm/s,O=C(Nc1c(Cl)cncc1Cl)c1ccc(OC(F)F)c(OCCCCSC(CCO)C(=O)O)c1 (configuration not stated)
8 min,88 nM,,,170 nM,,O=C(Nc1c(Cl)c[n+]([O-])cc1Cl)c1ccc(OC(F)F)c(OCCCNC2CCOC2=O)c1 (configuration not stated)
19 min,21 nM,,,32 nM,8.9 ×10⁻⁶ cm/s,COC(=O)CNCCCOc1cc(C(=O)Nc2c(Cl)cncc2Cl)ccc1OC(F)F
,910 nM,,,1500 nM,< 0.01 ×10⁻⁶ cm/s,O=C(O)CNCCCOc1cc(C(=O)Nc2c(Cl)cncc2Cl)ccc1OC(F)F
,,,,,0.14 ×10⁻⁶ cm/s,CNC(=C[N+](=O)[O-])NCCSCc1ccc(CN(C)C)o1 [RANITIDINE]

Compound,half-life [1],IC50 [2],half-life [3],half-life [4],IC50 [5],Papp [6]
CC(C)NCC(O)COc1cccc2ccccc12 (configuration not stated) [PROPRANOLOL],,,,,,10 ×10⁻⁶ cm/s
